Marks after values point to notes of the source that are not given here.
Tested on: tobacco mosaic virus (TMV)
Assay: Induction of resistance to tobacco mosaic virus in tobacco
Format: in vivo
Details: for Effectiveness Covered (%) (decline in TMV lesions vs UTC, systemic response) / Effectiveness Uncovered (%) (decline in TMV lesions vs UTC, local response): TMV 3 days post-treatment, scored 3 days after inoculation

| Substance | Effectiveness Covered (%) (decline in TMV lesions vs UTC, systemic response) (spray 20 ug/ml) | Effectiveness Uncovered (%) (decline in TMV lesions vs UTC, local response) (spray 20 ug/ml) | Effectiveness Covered (%) (decline in TMV lesions vs UTC, systemic response) (spray 10 ug/ml) | Effectiveness Uncovered (%) (decline in TMV lesions vs UTC, local response) (spray 10 ug/ml) | also measured |
| --- | --- | --- | --- | --- | --- |
| SEEEEELKASLKLIARLL (P19min-10S) | 94* % | 81* % |  |  |  |
| QAGPQSANKTGNVDDANNQDPLQAAAQLLEDLV (P14-22L,25-26A) |  |  | 75* % | 87* % |  |
| SQGISEKQLDQLLSQVIQALLQP (P4-14S-16V) |  |  | 85* % | 78% | TMV response / effectiveness against TMV infection (summary of Table 22) (foliar spray): produced the best results |
| SQGISEKQLDQLLASQLIQALLQP (P4-i14A) |  |  | 77% | 75% |  |
| SEEEEELAQLLAQLL (P18-9) | 52% | 65* % |  |  |  |
| SEEEEELLQLLEDLV (P14-41) | 61* % | 86* % |  |  |  |
| SQGISEKQLDQLLSQLI_ALLQP (SQGISEKQLDQLLSQLIALLQP; P4-d18) |  |  | 15% | 65% |  |
| QAGPQSANKTGNVDDANNQDPLQALLQLLEDAA (P14-22L,32-33A) |  |  | 69* % | 91* % |  |
| SEEEELDQLLSQLI (P4-115) | 87* % | 87* % |  |  |  |
| QAGPQSANKTGNVDDANNQDPEQALLQLLEDLV (P14-22E,26L) | 84* % | 61* % |  |  |  |
| QDPAQALEQLLEDLVKSLK (p14f-17S) | 84* % | 94* % |  |  |  |
| SEEEEELTGVLQKLSKILEAL (P25min-15S) | 74* % | 81* % |  |  |  |
| QDPMQALMQLLEDLDKLLK (P14d-15D) | 74* % | 87* % |  |  |  |
| KPNDSQSNIAKSISALIMSLLQ (P15b-12S) | 47% | 76* % |  |  |  |
| QDPMQADMQLLEDLVKLLK (P14d-7D) | 55* % | 71* % |  |  |  |
| QDPMQALMQLDEDLVKLLK (P14d-11D) | 87* % | 81* % |  |  |  |
| QAGPQSANKTGNVDDANNQDPAQALLQLLEDLV (P14-22A,26L) | 62% | 48% |  |  |  |
| GGLTLTGVDQKLMKILNALVQ (P25-9D) | 55% | 78* % |  |  | efficacy on covered leaves, systemic immune response (covered leaf): reduced efficacy on covered leaves |
| SQGISEKQLADQLLASQLIAQALLQP (P4-i10A,14A,18A) |  |  | 69% | 75% |  |
| SEEEEEEEIAKLIS_LIESLL (SEEEEEEEIAKLISLIESLL; P15-61) | 7% | 55* % |  |  |  |
| QAGPQSANKTGNVDDANNQDPAQALAQLLEDLV (P14-22A,26A) |  |  | 93* % | 92* % |  |
| QAGPQSANKTGNVDDANNQDPLQALLQLAEDAV (p14-22L,29,32A) [P14-22L,28,32A] |  |  | 37* % | 71* % |  |
| QAGPQSANKTGNVDDANNQDPMQALMQLLED (P14-dc2) |  |  | 56% | 76* % |  |
| QAGPQSANKTGNVDDANNQDPE_ALAQLLEDLV (QAGPQSANKTGNVDDANNQDPEALAQLLEDLV; P14-22E,26A) | 88* % | 89* % |  |  |  |
| SEEEEELTGVLQKLLK_ILE (SEEEEELTGVLQKLLKILE; P25-12) | 58% | 77* % |  |  |  |
| SQGISEKQLADQLLSQLIQALLQP (P4-i10A) |  |  | 81% | 92% |  |
| PSPFTQMLMHIVGEDLQAQN (P6a-15D) | 74* % | 74* % |  |  |  |
